Measured values: ChEMBL document CHEMBL1201862, “PubChem BioAssay data set” (2004)
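Five concentrations, 48 hours, 96-well plates. GI50 is the concentration that inhibits growth by half.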 Active and inactive are the calls of the source. Cut-off read from the data, not from the text of the source: active = GI50 up to about 1.1 µM and inactive = higher.

How the values were obtained:
Assay in all cases: DTP human tumour cell line panel, 48 h
[1] = test system: A549
[2] = test system: COLO 205
[3] = test system: EKVX
[4] = test system: HCT-116
[5] = test system: HCT-15
[6] = test system: HOP-92
[7] = test system: HT-29
[8] = test system: KM12
[9] = test system: MCF7
[10] = test system: Malme-3M
[11] = test system: OVCAR-4
[12] = test system: OVCAR-5
[13] = test system: RXF 393
[14] = test system: SK-MEL-5
[15] = test system: SK-OV-3
[16] = test system: SR
[17] = test system: TK-10
[18] = test system: U-251
[19] = test system: UACC-257
[20] = test system: UO-31

In the case of CC(C)NC(=O)OCc1c(COC(=O)NC(C)C)c(-c2cc[n+](COC(=O)Cc3ccccc3)cc2)n2c1CCC2, the GI50 [1] is reported as > 100 µM (inactive), the GI50 [2] is reported as > 100 µM (inactive) and the GI50 [3] is reported as > 100 µM (inactive). The GI50 [4] was > 100 µM (inactive), the GI50 [5] was over 100 µM and the GI50 [6] was > 100 µM (inactive). For the same compound, the GI50 [7] was > 100 µM (inactive), the GI50 [8] was > 100 µM (inactive) and the GI50 [9] was 67.5 µM (inactive). The GI50 [10] was > 100 µM (inactive), the GI50 [11] was > 100 µM (inactive) and the GI50 [12] was > 100 µM (inactive). The GI50 [13] was > 100 µM (inactive), the GI50 [14] was > 100 µM (inactive) and the GI50 [15] was > 100 µM (inactive). For the same compound, the GI50 [16] was 9.59 µM (inactive), the GI50 [17] was > 100 µM (inactive) and the GI50 [18] was > 100 µM (inactive). For the same compound, the GI50 [19] was > 100 µM (inactive) and the GI50 [20] was > 100 µM (inactive).
